Our source for the Ki values is publication PMC7177888, “Aryl-4,5-dihydro-1H-pyrazole-1-carboxamide Derivatives Bearing a Sulfonamide Moiety Show Single-digit Nanomolar-to-Subnanomolar Inhibition Constants against the Tumor-associated Human Carbonic Anhydrases IX and XII” (International Journal of Molecular Sciences, 2020).

The structures appear in SMILES notation. Read-outs that look alike come from different tables or passages of the source.

What all share (assay): stopped-flow CO2 hydrase assay
Holding throughout (assay type): biochemical

Assay [1] concerns the target T1, CA II (Homo sapiens, UniProt P00918).
T1 construct: gene CA2; recombinant, obtained in-house
In a few lines:
(§1)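 In-house recombinant human carbonic anhydrase isoforms were tested for CO2 hydration on an Applied Photophysics stopped-flow instrument, using 20 mM Hepes (pH 7.5), 20 mM Na2SO4 and 0.2 mM phenol red, with readings at 557 nm over 10–100 s and CO2 at 1.7–17 mM. Enzyme and inhibitor were preincubated for 15 min at room temperature, with dilutions made from 0.1 mM aqueous stocks down to 0.01 nM. Inhibition constants (Ki) were obtained by nonlinear least-squares fitting with the Cheng–Prusoff equation from initial rates corrected for the uncatalysed reaction. Each value is the mean of at least three determinations.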

For assay [2], the target named is T2, CA XII (Homo sapiens, UniProt O43570).
T2 construct: gene CA12; recombinant, obtained in-house
T2 sequence (O43570 25-354): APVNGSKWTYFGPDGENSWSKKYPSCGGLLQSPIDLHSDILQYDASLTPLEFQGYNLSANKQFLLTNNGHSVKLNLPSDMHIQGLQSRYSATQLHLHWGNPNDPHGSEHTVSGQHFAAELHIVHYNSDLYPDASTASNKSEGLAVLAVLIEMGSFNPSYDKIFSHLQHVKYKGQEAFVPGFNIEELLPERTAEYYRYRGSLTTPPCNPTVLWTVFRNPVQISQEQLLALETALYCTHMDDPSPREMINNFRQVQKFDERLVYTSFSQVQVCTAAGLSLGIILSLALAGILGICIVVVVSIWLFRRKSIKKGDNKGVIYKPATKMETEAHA
In a few lines:
as §1

For assay [3], the target named is T3, CA IX (Homo sapiens, UniProt Q16790).
T3 construct: gene CA9; recombinant, obtained in-house
In a few lines:
as §1

Assay [4] concerns the target T4, CA VII (Homo sapiens, UniProt P43166).
T4 construct: gene CA7; recombinant, obtained in-house
The essentials:
as §1

For assay [5], the target named is T5, CA I (Homo sapiens, UniProt P00915).
T5 construct: gene CA1; recombinant, obtained in-house
T5 sequence (P00915 2-261): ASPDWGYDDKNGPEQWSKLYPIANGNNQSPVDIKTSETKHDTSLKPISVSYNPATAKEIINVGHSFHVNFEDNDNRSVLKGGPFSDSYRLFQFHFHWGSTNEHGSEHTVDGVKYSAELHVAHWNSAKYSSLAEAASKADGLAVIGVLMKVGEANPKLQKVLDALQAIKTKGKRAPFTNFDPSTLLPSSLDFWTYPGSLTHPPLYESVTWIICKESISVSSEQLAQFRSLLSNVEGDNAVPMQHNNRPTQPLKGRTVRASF
In a few lines:
as §1

T4 sequence (P43166 whole entry): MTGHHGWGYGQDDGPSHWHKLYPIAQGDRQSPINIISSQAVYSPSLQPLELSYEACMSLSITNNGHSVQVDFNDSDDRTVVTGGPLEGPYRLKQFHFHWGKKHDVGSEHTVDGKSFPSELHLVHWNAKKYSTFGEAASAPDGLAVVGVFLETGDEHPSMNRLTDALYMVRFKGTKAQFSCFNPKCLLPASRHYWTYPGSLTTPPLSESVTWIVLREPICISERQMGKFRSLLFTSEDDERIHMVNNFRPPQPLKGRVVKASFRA

`NS(=O)(=O)c1ccc(NC(=O)N2N=C(c3ccccc3)CC2c2c3ccccc3cc3ccccc23)cc1` (stereo not shown) [compound 10, 5-Anthracene-9-yl-3-phenyl-4,5-dihydro-pyrazole-1-carboxylic acid (4-sulfamoyl-phenyl)-amide]: the Ki is 7.1 nM in assay [1]; 6.8 nM in assay [2]; 1.3 nM in assay [3] (read-out: KI (nM) / CA IX); 2.4 nM in assay [4]; 293 nM in assay [5].
For `NS(=O)(=O)c1ccc(NC(=O)N2N=C(c3ccc(Cl)cc3)CC2c2ccc(F)cc2)cc1` (stereo not shown) [compound 15, 3-(4-Chlorophenyl)-5-(4-fluorophenyl)-N-(4-sulfamoylphenyl)-4,5-dihydro-1H-pyrazole-1-carboxamide], the Ki in assay [1] is 71.3 nM; in assay [2] it was 1 nM; in assay [3] (read-out: KI (nM) / CA IX), 2.7 nM; in assay [4], 3.2 nM; in assay [5] it was 617 nM.
On to `COc1ccc(C2CC(c3ccc(Cl)cc3)=NN2C(=O)Nc2ccc(S(N)(=O)=O)cc2)cc1OC` (stereo not shown) [compound 22, 3-(4-Chlorophenyl)-5-(3,4-dimethoxyphenyl)-N-(4-sulfamoylphenyl)-4,5-dihydro-1H-pyrazole-1-carboxamide], for which the Ki in assay [1] turned out to be 9.3 nM; in assay [2], 1.5 nM; in assay [3] (read-out: KI (nM) / CA IX) it was 2.2 nM; in assay [4], 2.3 nM; in assay [5], 166 nM.
In the case of `NS(=O)(=O)c1ccc(NC(=O)N2N=C(c3ccc(Cl)cc3)CC2c2ccccc2Cl)cc1` (stereo not shown) [compound 16, 5-(2-Chlorophenyl)-3-(4-chlorophenyl)-N-(4-sulfamoylphenyl)-4,5-dihydro-1H-pyrazole-1-carboxamide], the Ki is 8.8 nM in assay [1]; 1.7 nM in assay [2]; 8 nM in assay [3] (read-out: KI (nM) / CA II); 4.3 nM in assay [4]; 297 nM in assay [5].
With `NS(=O)(=O)c1ccc(NC(=O)N2N=C(c3ccc(Br)cc3)CC2c2ccc(Cl)cc2)cc1` (stereo not shown) [compound 24, 3-(4-Bromophenyl)-5-(4-chlorophenyl)-4,5-dihydro-pyrazole-1-carboxylic acid (4-sulfamoyl-phenyl)-amide], the Ki in assay [1] was determined as 10.7 nM; in assay [2] it was 0.89 nM; in assay [3] (read-out: KI (nM) / CA IX), 14.3 nM; in assay [4], 2.7 nM; in assay [5], 45.5 nM.
In the same order, the values of `NS(=O)(=O)c1ccc(NC(=O)N2N=C(c3ccccc3)CC2c2c(F)cccc2Cl)cc1` (stereo not shown) [compound 8, 5-(2-Chloro-6-fluorophenyl)-3-phenyl-4,5-dihydro-pyrazole-1-carboxylic acid (4-sulfamoyl-phenyl)-amide] are 5.2 nM, 1.4 nM, 1.5 nM, 2.4 nM and 38.3 nM.
Consider `NS(=O)(=O)c1ccc(NC(=O)N2N=C(c3ccc(Cl)cc3)CC2c2ccccc2O)cc1` (stereo not shown) [compound 20, 3-(4-Chlorophenyl)-5-(2-hydroxyphenyl)-N-(4-sulfamoylphenyl)-4,5-dihydro-1H-pyrazole-1-carboxamide], for which the Ki is 7.6 nM in assay [1]; 0.99 nM in assay [2]; 76.6 nM in assay [3] (read-out: KI (nM) / CA IX); 2.1 nM in assay [4]; 74.2 nM in assay [5].
As to `NS(=O)(=O)c1ccc(NC(=O)N2N=C(c3ccccc3)CC2c2cccs2)cc1` (stereo not shown) [compound 9, 3-Phenyl-5-thiophene-2-yl-4,5-dihydro-pyrazole-1-carboxylic acid (4-sulfamoyl-phenyl)-amide], the Ki in assay [1] was determined as 5.2 nM; in assay [2] it was 2.5 nM; in assay [3] (read-out: KI (nM) / CA IX), 1.4 nM; in assay [4], 1.9 nM; in assay [5], 185 nM.
For `NS(=O)(=O)c1ccc(NC(=O)N2N=C(c3ccc(Cl)cc3)CC2c2cccs2)cc1` (stereo not shown) [compound 18, 3-(4-Chlorophenyl)-N-(4-sulfamoylphenyl)-5-(thiophen-2-yl)-4,5-dihydro-1H-pyrazole-1-carboxamide], the Ki in assay [1] is 9.2 nM; in assay [2], 0.62 nM; in assay [3] (read-out: KI (nM) / CA IX), 2.5 nM; in assay [4], 2.9 nM; in assay [5], 726 nM.
Consider `NS(=O)(=O)c1ccc(NC(=O)N2N=C(c3ccccc3)CC2c2ccc(F)cc2)cc1` (stereo not shown) [compound 7, 5-(4-Flurophenyl)-3-phenyl-4,5-dihydro-pyrazole-1-carboxylic acid (4-sulfamoyl-phenyl)-amide], for which the Ki in assay [1] worked out at 58.2 nM; in assay [2], 6.3 nM; in assay [3] (read-out: KI (nM) / CA IX), 1.5 nM; in assay [4], 2.3 nM; in assay [5], 252 nM.
Turning to `NS(=O)(=O)c1ccc(NC(=O)N2N=C(c3ccccc3)CC2c2ccccc2)cc1` (stereo not shown) [compound 5, 3,5-Diphenyl-4,5-dihydro-pyrazole-1-carboxylic acid (4-sulfamoyl-phenyl)-amide], the Ki in assay [1] is 67.3 nM; in assay [2], 7.7 nM; in assay [3] (read-out: KI (nM) / CA IX), 1.3 nM; in assay [4], 33.2 nM; in assay [5], 382 nM.
For the compound `NS(=O)(=O)c1ccc(NC(=O)N2N=C(c3ccc(Br)cc3)CC2c2ccc(F)cc2)cc1` (stereo not shown) [compound 25, 3-(4-Bromophenyl)-5-(4-flurophenyl)-4,5-dihydro-pyrazole-1-carboxylic acid (4-sulfamoyl-phenyl)-amide], the Ki in assay [1] turned out to be 5.5 nM; in assay [2], 2.4 nM; in assay [3] (read-out: KI (nM) / CA IX), 1.4 nM; in assay [4], 2.6 nM; in assay [5] it was 38.2 nM.
Take `NS(=O)(=O)c1ccc(NC(=O)N2N=C(c3ccc(Cl)cc3)CC2c2ccc(Cl)cc2Cl)cc1` (stereo not shown) [compound 17, 3-(4-Chlorophenyl)-5-(2,4-dichlorophenyl)-N-(4-sulfamoylphenyl)-4,5-dihydro-1H-pyrazole-1-carboxamide]: the Ki came out at 13.5 nM in assay [1]; 1.3 nM in assay [2]; 15 nM in assay [3] (read-out: KI (nM) / CA IX); 27.6 nM in assay [4]; 770 nM in assay [5].
Consider `COc1ccc(C2CC(c3ccc(Cl)cc3)=NN2C(=O)Nc2ccc(S(N)(=O)=O)cc2)cc1` (stereo not shown) [compound 21, 3-(4-Chlorophenyl)-5-(4-methoxyphenyl)-N-(4-sulfamoylphenyl)-4,5-dihydro-1H-pyrazole-1-carboxamide], for which the Ki in assay [1] was found to be 9.4 nM; in assay [2], 0.82 nM; in assay [3] (read-out: KI (nM) / CA IX), 2.8 nM; in assay [4], 2.7 nM; in assay [5], 368 nM.
Regarding `NS(=O)(=O)c1ccc(NC(=O)N2N=C(c3ccc(Br)cc3)CC2c2ccccc2)cc1` (stereo not shown) [compound 23, 3-(4-Bromophenyl)-5-phenyl-45-dihydro-pyrazole-1-carboxylic acid (4-sulfamoyl-phenyl)-amide], the Ki in assay [1] stood at 6.3 nM; in assay [2], 6.7 nM; in assay [3] (read-out: KI (nM) / CA IX), 1.4 nM; in assay [4], 2.9 nM; in assay [5] it was 44.4 nM.
`NS(=O)(=O)c1ccc(NC(=O)N2N=C(c3ccc(Cl)cc3)CC2c2ccc(Cl)cc2)cc1` (stereo not shown) [compound 14, 3,5-Bis(4-chlorophenyl)-N-(4-sulfamoylphenyl)-4,5-dihydro-1H-pyrazole-1-carboxamide]: the Ki amounted to 12.7 nM in assay [1]; 1.1 nM in assay [2]; 11.4 nM in assay [3] (read-out: KI (nM) / CA IX); 3.3 nM in assay [4]; 238 nM in assay [5].
In the case of `NS(=O)(=O)c1ccc(NC(=O)N2N=C(c3ccccc3)CC2c2ccc(Cl)cc2)cc1` (stereo not shown) [compound 6, 5-(4-Chlorophenyl)-3-phenyl-4,5-dihydro-pyrazole-1-carboxylic acid (4-sulfamoyl-phenyl)-amide], the Ki in assay [1] was 8.2 nM; in assay [2], 1.2 nM; in assay [3] (read-out: KI (nM) / CA IX), 1.4 nM; in assay [4], 7.7 nM; in assay [5], 36.2 nM.
With `NS(=O)(=O)c1ccc(NC(=O)N2N=C(c3ccccc3)CC2c2ccc(Cl)cc2Cl)cc1` (stereo not shown) [compound 11, 5-(2,4-Dichlorophenyl)-3-phenyl-4,5-dihydro-pyrazole-1-carboxylic acid (4-sulfamoyl-phenyl)-amide], the Ki in assay [1] was 5.4 nM; in assay [2] it was 0.84 nM; in assay [3] (read-out: KI (nM) / CA IX), 1.4 nM; in assay [4], 2.5 nM; in assay [5] it was 39.5 nM.
For the compound `NS(=O)(=O)c1ccc(NC(=O)N2N=C(c3ccc(Cl)cc3)CC2c2ccccc2)cc1` (stereo not shown) [compound 12, 3-(4-Chlorophenyl)-5-phenyl-N-(4-sulfamoylphenyl)-4,5-dihydro-1H-pyrazole-1-carboxamide], the Ki in assay [1] came to 233 nM; in assay [2], 9.2 nM; in assay [3] (read-out: KI (nM) / CA IX), 16.5 nM; in assay [4] it was 350 nM; in assay [5] it was 239 nM.
With `Cc1ccc(C2CC(c3ccc(Cl)cc3)=NN2C(=O)Nc2ccc(S(N)(=O)=O)cc2)cc1` (stereo not shown) [compound 13, 3-(4-Chlorophenyl)-N-(4-sulfamoylphenyl)-5-(p-tolyl)-4,5-dihydro-1H-pyrazole-1-carboxamide], the Ki in assay [1] was 12.3 nM; in assay [2], 9.2 nM; in assay [3] (read-out: KI (nM) / CA IX), 2.9 nM; in assay [4], 4.5 nM; in assay [5], 66.7 nM.
